Laboratory results reported in US20230314435A1, “MARKER OF CALCIUM-OVERLOAD-MEDIATED NEURONAL DEATH AND APPLICATION THEREOF” (Capital Medical University, priority 2022, published 2023).

Key:
[1] = test system: cell calcium-overload model; assay: Drug screening in a cell calcium-overload model (LDH assay); format: cell-based; settings: screening of micro-molecule library, PMZ as positive control
Description: The culture solution was removed, and the cells were washed with PBS. A fresh culture solution was used (it was recommended to use a low serum culture solution containing 1% serum or a suitable serum-free culture solution), and various culture wells were divided into the following groups: cell-free culture solution wells (background blank control wells), control cell wells not treated with a drug (sample control wells), cell wells used for subsequent lysis, not treated with a drug (maximum sample enzyme activity control wells), and drug-treated cell wells (drug-treated sample wells), and these wells were labeled properly.
Proper drug treatment was provided according to experiment requirements, for example, about 0-10 μL of a specific drug was added for stimulation; different concentrations and different treatment time could be set, and suitable drug solvent was required to be added to the control wells for continued culture as routine against the control. At 1 hour before a predetermined testing time point, the cell culture plate was taken out of a cell incubator, an LDH release reagent provided by a reagent kit was added to the “maximum sample enzyme activity control wells”, and the addition amount was equal to 10% of the volume of the original culture solution. After the addition of the LDH release reagent, the cells were blown repeatedly for several times for uniform mixing, and then were incubated in the cell incubator.
After the predetermined time expired, the cell culture plate was centrifuged with a multi-well plate centrifugal machine at 400 g for 5 min. 120 μL of a supernatant was respectively taken from each well and added to corresponding wells of a new 96-well plate for subsequent sample testing. 60 μL of an LDH test working solution was respectively added to each well. […] Then, absorbance was measured at 490 nm. […] Calculation was performed (the background blank control well absorbance was deducted from the measured absorbance of each group). […]

TLK2 [2] = assay: In-vitro kinase experiment (ATP consumption, MBP substrate); format: biochemical; settings: TLK2+Ionomycin group compared with normal treatment group
Protocol: 1 μL of ATP (0.2 mM), 1 μg of a TLK2 purified protein and 20 μg of a substrate were added to a 50 μL reaction system, the remaining volume was supplemented with a kinase buffer (10 mM Tris pH 7.5, 50 mM KCL, 10 mM MgCl2 and 1 mM DTT), and a reaction was performed at room temperature for 15 min. An MBP protein was taken as a positive control substrate, and a PGK1 protein was taken as a negative control substrate. 50 ul of a Kinase-Lumi™ superstrong chemiluminescence kinase assay reagent was added and uniformly mixed to have a reaction in the dark at room temperature for 10 min. Then, a multifunctional microplate reader was used for chemiluminescence testing.
TLK2 kinase activity was verified by an in-vitro kinase experiment. In the in-vitro kinase experiment, a myelin basic protein (MBP) could be used as a substrate for multiple kinases, a group to which a TLK2 (No TLK2) protein was not added was taken as a control, and in a normal treatment (TLK2+Control) and an ionomycin treatment group (TLK2+Ionomycin), the same amount of the TLK2 protein reacted with the same amount of the MBP protein. A reduced ATP level reflected the TLK2 kinase activity.

TLK2 [3] = assay: Purified GST-TLK2 incubated with lysis buffer of ionomycin-treated (calcium-overload) Hela cells: Commassie staining, phos-tag SDS-PAGE, mass spectrometry; format: biochemical
Protocol: TLK2 cDNA was cloned to a PGEX-6P-1 vector containing a GST tag, a recombinant plasmid was expressed into BL21 chemical competent cells for induced expression at 180 rpm at 20° C. for 20 hours under an induction condition of 0.5 mM IPTG. GST-TLK2 was purified according to the standard steps of Beyotime GST tag protein purification kit. Hela cells were treated with 17 μM ionomycin for 3 hours, and when a cell density reached 70%, the cells were collected. Lysis was performed in a lysis buffer (10 mM Tris, 150 mM NaCl, 2 mM EDTA and 0.5% TritonX-100). Centrifugation was performed at 12,000 rmp at 4° C. for 15 min, and a supernatant was collected. 3 μg of a GST-TLK2 purified protein and 200 μg of a cell lysis buffer were mixed, and placed overnight in a vertical shaker at 4° C. Subsequently, Glutathione. Sepharose 4B condensate beads were added, and rotation proceeded at room temperature for 1 hour. The mixture was washed with WB and IP lysis buffers for 6 times, each of which the mixture was centrifugated in a centrifugal machine at 2,000 rmp at 4° C. for 5 min. The product was diluted by an SDS sample-loading buffer and stewed at 95° C. for 5 min, or a TLK2 protein was cleaved overnight by PreScission Protease at 4° C. The final result was obtained by Commassie staining.
The purified TLK2 protein was incubated with a cell lysis buffer (inducing calcium overload) treated with ionomycin or a normal cell lysis buffer. […] Similar change also appeared after the TLK2 protein was incubated with a TLK2 KO cell lysis buffer treated with the ionomycin.
TLK2 cDNA was cloned to a PGEX-6P-1 vector containing a GST tag, a recombinant plasmid was expressed into BL21 chemical competent cells for induced expression at 180 rpm at 20° C. for 20 hours under an induction condition of 0.5 mM IPTG. GST-TLK2 was purified according to the standard steps of Beyotime GST tag protein purification kit. […]
Phos-tag was a functional molecule which could be in specific binding with phosphate ions. […] The content of the phosphorylated protein could be analyzed by the change in the migration rate. […]

Hela cells = assay: Western blot of autophagy markers (autophagy flux) in Hela wild-type and TLK2 KO cells; format: cell-based; settings: 6 hours
Protocol: Hela cells were collected, and were added in an RIPA lysis buffer added with a protease inhibitor and PMSF (50 mM Tris, 150 mM NaCl, 1% Triton X-100, 1% sodium deoxytholate and 0.1% SDS) for lysis on ice for 30 min. Subsequently, ultrasonication was performed on ice under the conditions of 40 w 3 sec on/3 sec off for 1 minute, centrifugation was performed at 12,000 rpm in a centrifugal machine at 4° C. for 15 min, a supernatant was collected, diluted by an SDS sample-loading buffer and stewed at 95° C. for 5 min. […] of a protein sample was loaded, and gel electrophoresis was performed under a constant voltage of 80 V When bromophenol blue reached the bottom, membrane transfer was performed overnight at a constant current of 130 mA to transfer the protein from a gel onto a PVDF membrane. The membrane was blocked with 5% skim milk at room temperature for 1 hour, and was washed with TBST for three times, with 5 min for each time. A primary antibody properly diluted was incubated overnight at 4° C., and washed with TBST for three times, with 5 min for each time. An HRP secondary antibody was diluted in 1:10000, incubated at room temperature for 1 hour, and washed with TBST for three times, with 5 min for each time. Western blot was developed by ECL chemiluminescence.
In TLK2 KO cells, the LC3-II/LC3-I ratio was increased, and a P62 protein level was reduced (FIG. 14). […] The autophagy is a dynamic process, for which a level may be elevated accurately through a process of testing an autophagy flux. By using a drug to activate or block an autophagy pathway, the autophagy flux smoothness could be evaluated.
Raparnycin (Rapa) was used for activating the autophagy, and bafilomycin A1 (Baf A1) was used for inhibiting the autophagy. Cells were treated with Raparnycin (Rapa, 40 nM) and bafilomycin A1 (Baf A1, 100 nM) for 6 hours, respectively. […] This indicated smooth autophagy flux in the TLK2 KO cells.

[4] = lysis buffer of Hela cells treated with 17 μM ionomycin for 3 hours
[5] = wild-type Hela cells, Rapa 40 nM or Baf A1 100 nM

SMILES | calcium-overload injury inhibition activity [1] | LC3-II/LC3-I ratio (Hela cells; [5]) | P62 protein level (Hela cells; [5]) | further results
O=c1[nH]c(C2CCCN2)nc2c1oc1ccc(Cl)cc12 (stereo not shown) [XL413] | had calcium-overload injury inhibition activity | – | – | –
O=C(O[C@@H]1Cc2c(O)cc(O)cc2O[C@@H]1c1cc(O)c(O)c(O)c1)c1cc(O)c(O)c(O)c1 [Epigallocatechin Gallate] | had calcium-overload injury inhibition activity | – | – | –
C[C@H](CCC(=O)O)C[C@H](C)C[C@H](C)C(=O)/C=C(\O)[C@H](C)C[C@H](C)C/C=C/[C@@H](C)[C@@H](O)[C@@H](C)[C@@H](O)C[C@@H]1CC[C@@](C)([C@H]2CC[C@@](C)([C@@H](C)O)O2)O1 [ionomycin, Ionomycin] | – | – | – | TLK2 kinase activity (ATP consumption) (TLK2 [2]): could consume much ATP; GST-TLK2 protein band (Commassie staining) (TLK2 [3]; [4]): moved upward; additional TLK2 phosphorylation sites compared with the control group (mass spectrometry) (TLK2 [3]; [4]): 15; TLK2 phosphorylation (phos-tag SDS-PAGE) (TLK2 [3]; normal and TLK2 KO cell lysis buffer after 17 μM ionomycin, 3 hours): could promote TLK2 phosphorylation
CC[C@@H]1C(=O)N(C)c2cnc(Nc3ccc(C(=O)N[C@H]4CC[C@H](N5CCN(CC6CC6)CC5)CC4)cc3OC)nc2N1C(C)C [Volasertib] | had calcium-overload injury inhibition activity | – | – | –
CO/C1=C\C(C)=C\[C@@H](C)[C@@H](O)[C@@H](C)C/C(C)=C/C=C/[C@H](OC)[C@@H]([C@@H](C)[C@@H](O)[C@H](C)[C@@]2(O)C[C@@H](O)[C@H](C)[C@@H](C(C)C)O2)OC1=O [Baf A1, bafilomycin A1] | – | elevated | elevated | autophagy activated by TLK2 KO (Hela cells; TLK2 KO Hela cells, Baf A1 100 nM): blocked
CO[C@H]1C[C@@H]2CC[C@@H](C)[C@@](O)(O2)C(=O)C(=O)N2CCCC[C@H]2C(=O)O[C@H]([C@H](C)C[C@@H]2CC[C@@H](O)[C@H](OC)C2)CC(=O)[C@H](C)/C=C(\C)[C@@H](O)[C@@H](OC)C(=O)[C@H](C)C[C@H](C)/C=C/C=C/C=C/1C [Rapa, Raparnycin] | – | increased | reduced | P62 protein level (Hela cells; TLK2 KO Hela cells, Rapa 40 nM): further reduce
